The source made the active and inactive calls.
Columns and labels:
Leucine aminopeptidase = molecular target: T1, Leucine aminopeptidase (Plasmodium falciparum 3D7, UniProt Q8IL11); experiment: P. falciparum M17LAP inhibitors, primary screen, biochemical, fluorogenic H-Leu-NHMec substrate, 1536-well (AID 1619); format: functional
T1 sequence (Q8IL11 whole entry): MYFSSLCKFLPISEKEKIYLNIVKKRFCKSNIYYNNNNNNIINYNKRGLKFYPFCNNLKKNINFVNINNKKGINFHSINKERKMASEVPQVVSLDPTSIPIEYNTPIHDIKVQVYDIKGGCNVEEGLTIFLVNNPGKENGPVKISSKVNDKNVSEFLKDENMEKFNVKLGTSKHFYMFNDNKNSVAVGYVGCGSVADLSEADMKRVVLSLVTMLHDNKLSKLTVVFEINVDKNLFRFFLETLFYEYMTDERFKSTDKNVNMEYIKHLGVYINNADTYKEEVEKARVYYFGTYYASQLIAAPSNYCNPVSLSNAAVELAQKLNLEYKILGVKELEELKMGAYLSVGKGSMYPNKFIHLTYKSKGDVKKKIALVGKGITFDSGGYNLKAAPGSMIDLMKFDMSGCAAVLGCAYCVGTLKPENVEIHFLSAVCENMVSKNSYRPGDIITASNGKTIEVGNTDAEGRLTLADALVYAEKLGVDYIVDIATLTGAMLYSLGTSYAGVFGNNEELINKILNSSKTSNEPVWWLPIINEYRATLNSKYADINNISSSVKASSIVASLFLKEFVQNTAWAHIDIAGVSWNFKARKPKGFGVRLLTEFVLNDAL

[1] = molecular target: T2, Heat shock factor protein 1 (Mus musculus, UniProt P38532); experiment: decrease of HSF1-responsive luciferase luminescence – cell-based, NIH3T3, dose retest, confirmation (AID 2382); format: functional;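 further: NIH3T3 fibroblasts with HSF1-driven luciferase reporter stressed by proteasome inhibitor MG132; luminescence from HSF1-driven luciferase expression after 8 hours of MG132 stress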
T2 sequence (P38532 whole entry): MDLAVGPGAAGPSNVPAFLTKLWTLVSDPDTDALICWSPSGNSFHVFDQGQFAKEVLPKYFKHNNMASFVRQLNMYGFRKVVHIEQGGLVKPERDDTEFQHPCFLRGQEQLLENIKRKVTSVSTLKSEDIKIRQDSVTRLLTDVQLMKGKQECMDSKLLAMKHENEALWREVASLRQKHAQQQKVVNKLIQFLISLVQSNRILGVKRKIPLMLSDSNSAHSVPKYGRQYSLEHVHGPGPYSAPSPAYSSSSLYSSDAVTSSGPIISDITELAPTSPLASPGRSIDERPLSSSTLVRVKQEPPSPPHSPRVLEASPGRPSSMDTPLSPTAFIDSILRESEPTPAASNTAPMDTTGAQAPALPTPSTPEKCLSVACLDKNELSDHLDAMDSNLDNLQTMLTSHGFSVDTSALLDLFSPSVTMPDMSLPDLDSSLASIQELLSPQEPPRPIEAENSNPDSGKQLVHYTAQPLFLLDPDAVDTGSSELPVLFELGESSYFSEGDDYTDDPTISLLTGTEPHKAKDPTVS

HEK293 = experiment: EBV LMP1 TES2 canonical NF-kB signalling blockers – cell-based, HEK293, luciferase, cherry-pick, dose response (AID 588343); format: functional; conditions: Homo sapiens
Fatty acid synthase [2] = molecular target: T3, Fatty acid synthase (Homo sapiens, UniProt P49327); experiment: inhibition of human FAS-TE enzyme activity – biochemical, endpoint fluorescence intensity, uHTS hits, dose response (AID 624327); format: functional;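 further: fluorescence from hydrolysis of an O-methyl fluorescein acyl ester substrate by the enzyme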
Fatty acid synthase [3] = molecular target: T3, Fatty acid synthase; experiment: inhibition of human FAS-TE enzyme activity – biochemical, kinetic fluorescence intensity, dose response (AID 624326); format: functional;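 further: rate of fluorescence rise from hydrolysis of a fluorogenic O-methyl fluorescein ester substrate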
[4] = microbe, parasite or virus in culture; format: functional; conditions: Mycobacterium tuberculosis
cells [5] = format: functional
[6] = tested on: Streptococcus sp. 'group A'; experiment: Streptococcus pyogenes SK(-)GAS viability under kanamycin – luminescence, BacTiterGlo, confirmation, counter-screen for streptokinase expression inhibitor project, dose response (AID 1900); format: functional, organism-based
Streptokinase A = molecular target: T4, Streptokinase A (Streptococcus pyogenes serotype M1, UniProt P10520); experiment: viability-normalized secreted streptokinase activity reduction – plasminogen activation absorbance, OD405, dose response (AID 1914); format: functional, Streptococcus pyogenes M1 GAS;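 further: secreted streptokinase activity via plasminogen activation per viability signal from cell pellet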
T4 sequence (P10520 whole entry): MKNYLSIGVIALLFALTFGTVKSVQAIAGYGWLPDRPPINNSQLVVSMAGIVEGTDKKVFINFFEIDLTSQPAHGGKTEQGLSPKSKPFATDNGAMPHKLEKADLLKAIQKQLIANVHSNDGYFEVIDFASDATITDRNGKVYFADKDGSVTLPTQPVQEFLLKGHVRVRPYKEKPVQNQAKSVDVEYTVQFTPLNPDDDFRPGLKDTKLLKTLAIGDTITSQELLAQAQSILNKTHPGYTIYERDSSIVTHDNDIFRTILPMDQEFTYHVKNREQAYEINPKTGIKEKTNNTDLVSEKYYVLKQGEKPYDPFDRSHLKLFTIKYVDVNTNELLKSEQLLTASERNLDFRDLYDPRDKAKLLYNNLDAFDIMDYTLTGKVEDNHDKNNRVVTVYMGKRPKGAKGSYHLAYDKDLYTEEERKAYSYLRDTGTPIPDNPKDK

Streptococcus = experiment: GAS UMAA2166 growth inhibition – luminescence, BacTiterGlo, counter-screen for streptokinase expression inhibitor project, dose response (AID 1915); format: functional, organism-based;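 further: potency for reduction of bacterial viability or growth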
[7] = molecular target: Heat shock protein HSP 90-alpha (Homo sapiens, UniProt P07900); format: functional, organism-based
[8] = reduction of Shn3 3'UTR-driven luciferase in osteoblasts – cell-based, Clone20 osteoblasts, firefly luciferase, cherry-picked, dose response (AID 624132); format: functional;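 further: firefly luciferase luminescence from reporter carrying the Shn3 3'UTR in osteoblasts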
[9] = loss of viability in HepG2 cells – cell-based, CellTiter-Glo, cherry-picked, cytotoxicity control for Shn3 inhibitor project, dose response (AID 624134); format: functional
[10] = non-specific 3'UTR reporter inhibition in Clone20-Shn3RL – cell-based, Renilla luciferase, cherry-picked, counter-screen for Shn3 inhibitor project, dose response (AID 624133); format: functional
[11] = THP-1 cell cytotoxicity, dose response, cytotoxicity control for non-replicating M. tuberculosis project (AID 489025); format: functional
[12] = Vero E6 cell cytotoxicity, dose response, cytotoxicity control for non-replicating M. tuberculosis project, secondary assay (AID 492998); format: functional, VeroE6; conditions: Vero C1008
cells [13] = format: functional, cell-based
cells [14] = format: functional, cell-based; remark: listed apart in the source
[15] = Trypanosoma cruzi growth suppression in host cells – NIH3T3 host cells, beta-gal luminescence, confirmation (AID 2044); format: functional, cell-based;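 further: intracellular parasites grown in NIH/3T3 mouse fibroblasts as host cells; luminescent beta-galactosidase reporter signal from transgenic T. cruzi replicating inside host cells; inhibitors lower the luminescence signal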
[16] = NIH3T3 cell viability loss – ATP luminescence, mouse fibroblasts, counter-screen, dose response (AID 2010); format: functional, cell-based;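 further: cells exposed to compound for about 90 hours before reading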
[17] = molecular target: T2, Heat shock factor protein 1; experiment: enhancement of HSF1-driven luciferase signal – cell-based, NIH3T3, luminescence, dose retest, confirmation (AID 435004); format: functional;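 further: stress induced by proteasome inhibitor MG132 added 30 min after compound; luciferase reporter driven by HSF1 response element in NIH3T3 cells; actives raise luminescence as potentiators of the MG132 stress response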
[18] = luciferase reporter signal suppression in cells – H4 neuroglioma cells, luminescence, dose response (AID 1990); format: functional, cell-based
[19] = Luminescence Cell-Based Dose Response HTS to Identify Inhibitors of 5'UTR Stem-Loop Driven Prion Protein mRNA Translation in H4 Neuroglioblastoma Cells. [Related pubchem assays: 1827 (Project Summary), 1813 (Primary HTS)]; format: functional
[20] = alpha-synuclein stem-loop luciferase translation blockers – H4 neuroglioma cells, luminescence, confirmation (AID 1988); format: functional, cell-based
Cytochrome P450 3A4 = Cytochrome P450 3A4 (Homo sapiens, UniProt P08684);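 further: CYP3A4 tested as one member of a cytochrome P450 panel screen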
INS1 = experiment: INS-1E survival protection against cytokine death – cell-based, luminescence, retest, dose response (AID 449756); format: functional; conditions: Rattus norvegicus;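 further: cell death triggered by IL-1 beta plus TNF-alpha plus IFN-gamma mixture; protective hits raise ATP signal compared with cytokine alone wells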
[21] = intracellular Trypanosoma cruzi inhibitors in host cells – cell-based, plate reader, cherry-pick samples, set 3, dose response (AID 651818); format: functional;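 further: compounds incubated with infected cells for about four days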
[22] = P. falciparum Dd2 growth inhibitors, dose response, SYBR Green, cherry-picked samples (AID 1159567); format: functional, cell-based
[23] = toxicity to human hepatoma HepG2 cells – cell-based, cherry-picked samples, cytotoxicity control, dose response (AID 1159577); format: functional

T3 sequence (P49327 whole entry): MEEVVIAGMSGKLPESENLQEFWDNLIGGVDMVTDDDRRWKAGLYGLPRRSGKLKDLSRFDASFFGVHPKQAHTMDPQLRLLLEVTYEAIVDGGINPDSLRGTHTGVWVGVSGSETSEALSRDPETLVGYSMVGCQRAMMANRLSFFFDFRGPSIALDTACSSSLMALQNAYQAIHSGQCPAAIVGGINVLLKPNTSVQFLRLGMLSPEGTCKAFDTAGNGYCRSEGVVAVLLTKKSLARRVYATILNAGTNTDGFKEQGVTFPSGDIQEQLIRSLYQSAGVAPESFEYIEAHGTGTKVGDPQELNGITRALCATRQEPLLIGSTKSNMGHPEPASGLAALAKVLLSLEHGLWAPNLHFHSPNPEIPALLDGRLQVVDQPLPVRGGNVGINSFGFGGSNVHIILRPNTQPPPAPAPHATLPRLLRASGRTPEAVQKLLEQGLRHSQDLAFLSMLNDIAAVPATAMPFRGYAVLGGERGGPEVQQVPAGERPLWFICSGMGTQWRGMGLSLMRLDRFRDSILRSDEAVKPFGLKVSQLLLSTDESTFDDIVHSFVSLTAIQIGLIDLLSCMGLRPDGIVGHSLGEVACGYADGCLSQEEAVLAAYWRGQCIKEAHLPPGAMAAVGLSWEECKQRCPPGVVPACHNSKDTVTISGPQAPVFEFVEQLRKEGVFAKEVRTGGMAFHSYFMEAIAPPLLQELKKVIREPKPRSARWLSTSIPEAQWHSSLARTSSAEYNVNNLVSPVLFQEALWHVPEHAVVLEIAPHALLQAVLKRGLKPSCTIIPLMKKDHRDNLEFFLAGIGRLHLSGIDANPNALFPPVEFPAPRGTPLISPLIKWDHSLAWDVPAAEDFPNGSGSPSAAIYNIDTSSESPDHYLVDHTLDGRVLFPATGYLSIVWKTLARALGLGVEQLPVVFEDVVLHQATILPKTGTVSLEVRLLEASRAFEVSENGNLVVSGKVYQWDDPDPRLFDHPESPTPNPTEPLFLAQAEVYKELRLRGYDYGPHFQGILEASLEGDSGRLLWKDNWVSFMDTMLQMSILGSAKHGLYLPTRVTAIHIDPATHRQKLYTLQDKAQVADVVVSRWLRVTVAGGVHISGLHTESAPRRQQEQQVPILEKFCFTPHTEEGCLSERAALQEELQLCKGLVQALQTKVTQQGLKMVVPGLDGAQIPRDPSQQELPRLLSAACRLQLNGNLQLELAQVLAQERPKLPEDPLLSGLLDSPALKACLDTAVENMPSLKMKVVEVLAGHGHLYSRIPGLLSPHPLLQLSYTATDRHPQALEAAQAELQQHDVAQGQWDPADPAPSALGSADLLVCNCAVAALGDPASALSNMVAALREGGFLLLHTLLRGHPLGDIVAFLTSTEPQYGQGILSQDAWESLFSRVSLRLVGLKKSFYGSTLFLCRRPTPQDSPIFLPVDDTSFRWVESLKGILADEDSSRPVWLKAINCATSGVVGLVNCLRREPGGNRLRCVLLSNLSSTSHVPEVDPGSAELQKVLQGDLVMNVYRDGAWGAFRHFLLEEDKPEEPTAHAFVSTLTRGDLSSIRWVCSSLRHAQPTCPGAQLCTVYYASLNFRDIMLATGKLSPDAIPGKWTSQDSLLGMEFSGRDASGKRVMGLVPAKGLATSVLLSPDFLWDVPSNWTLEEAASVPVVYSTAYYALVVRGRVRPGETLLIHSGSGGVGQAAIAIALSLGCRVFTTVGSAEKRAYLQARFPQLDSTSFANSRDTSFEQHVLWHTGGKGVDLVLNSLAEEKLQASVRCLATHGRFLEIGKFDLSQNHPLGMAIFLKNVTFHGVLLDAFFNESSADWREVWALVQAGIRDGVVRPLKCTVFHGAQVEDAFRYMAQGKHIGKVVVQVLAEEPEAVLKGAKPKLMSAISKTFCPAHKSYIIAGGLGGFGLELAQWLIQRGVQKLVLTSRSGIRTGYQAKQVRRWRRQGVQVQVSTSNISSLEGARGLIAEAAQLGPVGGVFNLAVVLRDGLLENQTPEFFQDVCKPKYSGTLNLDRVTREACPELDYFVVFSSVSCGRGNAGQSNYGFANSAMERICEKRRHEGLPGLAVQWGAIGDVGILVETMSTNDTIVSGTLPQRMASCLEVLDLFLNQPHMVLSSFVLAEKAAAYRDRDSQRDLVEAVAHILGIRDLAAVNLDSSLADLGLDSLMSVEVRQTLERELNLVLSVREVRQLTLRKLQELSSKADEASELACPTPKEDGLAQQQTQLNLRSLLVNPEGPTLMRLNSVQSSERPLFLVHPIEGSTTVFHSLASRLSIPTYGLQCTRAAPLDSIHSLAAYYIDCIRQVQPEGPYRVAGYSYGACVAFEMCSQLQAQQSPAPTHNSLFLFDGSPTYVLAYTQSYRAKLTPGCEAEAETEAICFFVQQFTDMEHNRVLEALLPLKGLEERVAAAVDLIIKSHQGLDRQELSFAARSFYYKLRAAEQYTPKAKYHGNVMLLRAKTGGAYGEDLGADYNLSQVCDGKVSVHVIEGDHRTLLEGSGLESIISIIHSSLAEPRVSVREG
Sequence of Cytochrome P450 3A4 (P08684 whole entry): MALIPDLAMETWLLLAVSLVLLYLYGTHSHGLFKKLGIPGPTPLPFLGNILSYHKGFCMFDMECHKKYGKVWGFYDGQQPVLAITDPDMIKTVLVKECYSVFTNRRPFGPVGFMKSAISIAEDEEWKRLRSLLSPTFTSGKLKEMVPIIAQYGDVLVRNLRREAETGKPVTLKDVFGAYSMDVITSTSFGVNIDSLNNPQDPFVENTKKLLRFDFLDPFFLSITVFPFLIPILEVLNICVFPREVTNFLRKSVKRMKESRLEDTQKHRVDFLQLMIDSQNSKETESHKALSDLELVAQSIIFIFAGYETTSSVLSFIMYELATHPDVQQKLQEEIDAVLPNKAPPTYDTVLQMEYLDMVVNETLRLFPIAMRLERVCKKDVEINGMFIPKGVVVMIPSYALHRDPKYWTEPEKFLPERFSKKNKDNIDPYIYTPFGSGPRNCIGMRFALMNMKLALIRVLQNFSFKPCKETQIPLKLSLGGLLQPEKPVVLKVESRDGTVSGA

CCCn1c(C)cc(C(=O)COC(=O)c2cccnc2O)c1C
IC50 (Leucine aminopeptidase): 15.3 µM (active)
EC50 [1]: 289 nM (active)
AC50 (HEK293): 5.4 µM (active)

COc1cc2c(cc1OC)C(c1ccc(-c3ccccc3Cl)o1)=NCC2
AC50 (HEK293): 15.2 µM (active)

Cc1ccc(C(=O)CN(CCCC(N)=O)S(=O)(=O)c2ccc([N+](=O)[O-])cc2)cc1
IC50 (Fatty acid synthase [2]): 3.83 µM (active)
IC50 (Fatty acid synthase [3]): 2.83 µM (active)

Cc1nn(-c2ccccc2)nc1C(=O)c1c(C)nn(-c2ccccc2)c1O
CC50 [4]: 35.8 µM (active)
IC50 (cells [5]): 12.8 µM (active)

CC(C)=CCc1cc([C@@H]2COc3c(ccc4c3C=CC(C)(C)O4)C2)c(O)cc1O
EC50 [6]: 1.8 µM (active)
EC50 (Streptokinase A): > 150 µM (not active)
EC50 (Streptococcus): 5.23 µM (active)
AC50 [7]: 3.57 µM (active)
AC50 [8]: 7.54 µM (active)
AC50 [9]: 58.3 µM (active)
AC50 [10]: 4.11 µM (active)

COc1ccc(NC(=O)CN(c2ccc([N+](=O)[O-])cc2)S(=O)(=O)c2ccccc2)cc1
IC50 (Fatty acid synthase [2]): 7.77 µM (active)
IC50 (Fatty acid synthase [3]): 3.48 µM (active)

CN1C(=O)C(=C(Nc2ccccc2)SCc2ccccc2Cl)C(=O)N(C)C1=O
CC50 [11]: > 40 µM (active)
CC50 [12]: > 20 µM (active)
IC50 (cells [5]): 3.96 µM (active)

CC(C)(C)SCCNC(=O)c1ccc(Cl)c([N+](=O)[O-])c1
AC50 [7]: 2.84 µM (active)
IC50 (Fatty acid synthase [2]): 6.39 µM (active)
IC50 (Fatty acid synthase [3]): 5.65 µM (active)

CCC(c1nnnn1Cc1ccco1)N(CCc1ccccc1)Cc1cc2cc(C)ccc2nc1O (centres undefined)
IC50 (cells [13]): > 29.9 µM (inactive)
EC50 (cells [14]): > 29.9 µM (inactive)

Cc1ccc(-c2nnc(NC(=O)c3ccco3)o2)c(C)c1
CC50 [11]: > 40 µM (active)
CC50 [12]: 17.5 µM (active)
IC50 (cells [5]): 0.81 µM (active)

CCc1nc(SCC(=O)c2ccc3c(c2)OCCO3)c2ccccc2n1
AC50 (HEK293): 32.8 µM (active)

O=C(Nc1cccc(Cl)c1N1CCCC1)c1ccc([N+](=O)[O-])o1
CC50 [11]: 24 µM (active)
CC50 [12]: 12.4 µM (active)
IC50 (cells [5]): 18.4 µM (active)

CCn1c(CNc2ccc(Cl)cc2)nnc1SCc1ccc(C)cc1
AC50 [7]: 8.07 µM (active)

Cc1ccc(N2C(=O)C3CC(c4ccccc4)=C4C5C=CC(C6C(=O)N(c7ccc(C)cc7C)C(=O)C56)C4C3C2=O)c(C)c1 (centres undefined)
EC50 [15]: 2.49 µM (active)
EC50 [16]: > 60 µM (not active)
EC50 [17]: > 260 µM (inactive)
IC50 (Fatty acid synthase [2]): 17.4 µM (active)
IC50 (Fatty acid synthase [3]): 10.3 µM (active)

Cc1cc(-c2cc(-c3ccc(Cl)cc3)nc(N)c2C#N)co1
EC50 [18]: 20.9 µM (active)
EC50 [19]: > 120 µM (not active)
EC50 [20]: > 120 µM (not active)
AC50 [7]: 6.87 µM (active)
AC50 (Cytochrome P450 3A4): 17.8 µM (inconclusive)

O=C(NNc1c(Cl)cc(Cl)cc1Cl)c1cccc([N+](=O)[O-])c1
AC50 (INS1): 3.93 µM (active)
IC50 (Fatty acid synthase [2]): 10.7 µM (active)
IC50 (Fatty acid synthase [3]): 6.77 µM (active)

C[C@H](CO)N1C[C@H](C)[C@@H](CN(C)S(=O)(=O)c2ccc(F)cc2)Oc2c(NC(=O)NC3CCCCC3)cccc2C1=O
AC50 [21]: 7.84 µM (active)

Cc1ccc(S(=O)(=O)Nc2ccc3c(c2)C(=O)N([C@@H](C)CO)C[C@H](C)[C@H](CN(C)Cc2ccc(-c4ccccc4)cc2)O3)cc1
AC50 [21]: 5.6 µM (active)

C[C@@H]1CCCCO[C@@H](CN(C)Cc2ccc(C(=O)Nc3ccccc3N)cc2)[C@@H](C)CN([C@H](C)CO)C(=O)c2cc(NS(=O)(=O)c3cccs3)ccc2O1
AC50 [21]: 2.39 µM (active)

C[C@H]1CN([C@@H](C)CO)C(=O)Cc2cc(NS(=O)(=O)c3ccc(Cl)cc3)ccc2O[C@@H]1CN(C)Cc1ccc(Oc2ccccc2)cc1
AC50 [21]: 3.33 µM (active)

C[C@@H]1CN([C@H](C)CO)C(=O)Cc2cc(NS(=O)(=O)c3ccc(Cl)cc3)ccc2O[C@H]1CN(C)Cc1ccccc1
AC50 [21]: 3.09 µM (active)

O=C(CC(=O)N/N=C\c1ccc([N+](=O)[O-])cc1)NCCc1ccccc1
IC50 (Fatty acid synthase [2]): 23.6 µM (inactive)
IC50 (Fatty acid synthase [3]): 20.3 µM (inactive)

Cc1ccccc1-c1ccc2c(c1)O[C@@H](CN(C)Cc1ccncc1)[C@H](C)CN([C@H](C)CO)S2(=O)=O
AC50 [22]: 3.9 µM (active)
AC50 [23]: > 39 µM (inactive)

COc1ccc2c3c(n(C)c2c1)[C@@H](CO)N(C(=O)Nc1ccc(F)cc1)CC31CN(Cc2ccccc2F)C1
AC50 [22]: 5.53 µM (active)
AC50 [23]: 24.2 µM (active)

CCCc1cn(CC[C@H]2CC[C@H](NS(=O)(=O)c3ccc(-c4ccccc4)cc3)[C@@H](CO)O2)nn1
AC50 [22]: 4.48 µM (active)
AC50 [23]: > 39 µM (inactive)

Reference: ChEMBL document CHEMBL1201862, “PubChem BioAssay data set” (2004)
